Common to all, as to test: DTP human tumour cell line panel, 48 h
Experiment [1] has as its system UO-31 renal.
Experiment [2] deals with OVCAR-8 ovarian.
Experiment [3] concerns SNB-75 CNS.
Experiment [4] has as its system M14 melanoma.
For experiment [5], the system named is UACC-62 melanoma.
The subject of experiment [6] is EKVX NSCLC.
The test system of experiment [7] is UACC-257 melanoma.
Experiment [8] has as its system MOLT-4 leukemia.
Experiment [9] has as its system KM12 colon.
The test system of experiment [10] is NCI-H23 lung.
The test system of experiment [11] is BT-549 breast.
The test system of experiment [12] is SK-MEL-2 melanoma.
Experiment [13] deals with SF-268 CNS.
In experiment [14] the test system is LOX IMVI melanoma.
Experiment [15] relates to SK-MEL-28 melanoma.
For experiment [16], the system named is MCF7 breast.
Experiment [17] has as its system ACHN renal.
The test system of experiment [18] is SK-OV-3 ovarian.
Experiment [19] deals with SF-295 CNS.

TGI data for seven compounds are collected here from PubChem BioAssay (NCI).

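How tested: cells in 96-well plates exposed to compound for 48 hours at five concentrations. TGI denotes the concentration required for complete inhibition of growth.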 Some results are limits rather than exact numbers.

Turning to `O=C(O)c1cnccc1-c1cc(=O)[nH]n1-c1ccccc1`, the TGI in experiment [1], in [2], in experiment [3], in experiment [4], in experiment [5] and in experiment [6] was above 100 µM throughout. For the same compound, the concentration for total growth inhibition (TGI) is above 100 µM in experiment [7]; above 77.6 µM in experiment [8]; above 100 µM in experiment [9]; above 100 µM in experiment [10]; above 100 µM in [11]; above 100 µM in experiment [12]. The TGI in experiment [13] is above 100 µM; in [14], above 100 µM; in experiment [15], above 78.2 µM; in [16], above 100 µM; in experiment [17] it was above 100 µM; in [18], above 100 µM. Further, the total growth inhibition concentration (TGI) in [19] is above 63.8 µM.

With `COC(=O)/C=C1/OC(c2ccc(Br)cc2)=C(Br)C1=O`, the concentration for total growth inhibition (TGI) in experiment [1] stood at 24.4 µM; in experiment [2] it was 10.5 µM; in experiment [3] it was 17.5 µM; in [4], 10.8 µM; in experiment [5] it was 20.5 µM; in experiment [6], 32 µM. Further, the concentration for total growth inhibition (TGI) in [7] was found to be 27.5 µM; in experiment [8] it was 6.87 µM; in experiment [9] it was 22.4 µM; in experiment [10], 17.1 µM; in experiment [11] it was 11.7 µM; in [12], 24.8 µM. Besides, the total growth inhibition concentration (TGI) came out at 17 µM in experiment [13]; 8.4 µM in [14]; 27.2 µM in experiment [15]; 25.5 µM in experiment [16]; 16.8 µM in experiment [17]; 38.2 µM in experiment [18]. In experiment [19], the TGI stood at 28.9 µM.

`Nc1ccc(S(=O)(=O)Nc2nc3ccccc3nc2Nc2ccc(S(N)(=O)=O)cc2)cc1`: the TGI was 56.2 µM in [1]; above 100 µM in [2]; 69.6 µM in [3]; above 100 µM in experiment [4]; above 100 µM in [5]; above 100 µM in experiment [6]. Moreover, the concentration for total growth inhibition (TGI) is above 100 µM in [7]; 93.3 µM in experiment [8]; above 100 µM in experiment [9]; 48 µM in experiment [10]; 62.1 µM in experiment [11]; 45.6 µM in experiment [12]. For the same compound, the concentration for total growth inhibition (TGI) was 60.7 µM in [13]; 38.3 µM in experiment [14]; above 100 µM in experiment [15]; above 100 µM in experiment [16]; above 100 µM in experiment [17]; above 100 µM in experiment [18]. In [19], this compound had a TGI of 72.1 µM.

Regarding `CN(C)c1ccc(/C=C2\C[C@H]3[C@@H]4CCC5=CC(=O)CC[C@]5(C)[C@H]4CC[C@]3(C)C2=O)cc1`, the concentration for total growth inhibition (TGI) in [1], in experiment [2], in experiment [3], in experiment [4], in [5] and in experiment [6] was above 100 µM throughout. The total growth inhibition concentration (TGI) was 67.3 µM in experiment [7]; above 100 µM in [8]; above 100 µM in experiment [9]; above 100 µM in [10]; above 100 µM in [11]; above 100 µM in [12]. Further, the total growth inhibition concentration (TGI) is above 100 µM in experiment [13]; 41.7 µM in experiment [14]; above 100 µM in [15]; above 100 µM in [16]; above 100 µM in experiment [17]; above 100 µM in experiment [18]. This compound yielded a TGI in [19] above 100 µM.

In the case of `C[C@@]12C[C@@H](c3ccccc3O1)N1CCSC1=N2`, the TGI in experiment [1], in [2], in experiment [3], in [4], in [5] and in experiment [6] was above 100 µM each time. For the same compound, the concentration for total growth inhibition (TGI) in experiment [7], in experiment [8], in experiment [9], in [10], in [11] and in experiment [12] was above 100 µM in each case. Further, the TGI in experiment [13], in [14], in [15], in experiment [16], in [17] and in [18] was above 100 µM in each case. In addition, the TGI in [19] was above 100 µM.

With `CC(C)(C)C1CCC2c3c([nH]c4ccccc34)C3C(=O)N(c4cccc(Cl)c4)C(=O)C3C2C1` (stereo not drawn), the total growth inhibition concentration (TGI) in experiment [1] is 15.1 µM; in experiment [2], above 55.6 µM; in [3] it was 50.1 µM; in experiment [4], 28.3 µM; in experiment [5] it was 33.4 µM; in experiment [6] it was 43.7 µM. Further, the TGI in experiment [7] was found to be 29.6 µM; in experiment [8], 13 µM; in [9], 14.5 µM; in experiment [10], 25.3 µM; in [11] it was 41.1 µM; in experiment [12], 35.1 µM. For the same compound, the TGI is 32.4 µM in experiment [13]; 20.8 µM in experiment [14]; 32 µM in [15]; 4.22 µM in experiment [16]; 44.2 µM in experiment [17]; 63.2 µM in experiment [18]. Also, the concentration for total growth inhibition (TGI) in experiment [19] was 44.7 µM.

For `O=C(CN1CCOCC1)c1ccc2[nH]c(=O)oc2c1`, the concentration for total growth inhibition (TGI) in experiment [1], in experiment [2], in experiment [3], in [4], in experiment [5] and in experiment [6] was above 100 µM each time. In addition, the TGI in experiment [7], in experiment [8], in experiment [9], in experiment [10], in [11] and in experiment [12] was above 100 µM throughout. The TGI in experiment [13], in [14], in experiment [15], in experiment [16], in experiment [17] and in [18] was above 100 µM in each case. The compound also returned a total growth inhibition concentration (TGI) in experiment [19] above 100 µM.
